Test results as given in paper PMC10279920, “Single-molecule visualization of Pif1 helicase translocation on single-stranded DNA” (The Journal of Biological Chemistry, 2023).

T1: GFP-Pif1 (Saccharomyces cerevisiae, UniProt P07271, V385A)
T1 construct: N-terminal superfolder GFP fusion of nuclear isoform residues 40-859, pRSF-Duet-1, E. coli Rosetta2(DE3), Ni-NTA purified
T1 sequence (P07271 40-859 V385A): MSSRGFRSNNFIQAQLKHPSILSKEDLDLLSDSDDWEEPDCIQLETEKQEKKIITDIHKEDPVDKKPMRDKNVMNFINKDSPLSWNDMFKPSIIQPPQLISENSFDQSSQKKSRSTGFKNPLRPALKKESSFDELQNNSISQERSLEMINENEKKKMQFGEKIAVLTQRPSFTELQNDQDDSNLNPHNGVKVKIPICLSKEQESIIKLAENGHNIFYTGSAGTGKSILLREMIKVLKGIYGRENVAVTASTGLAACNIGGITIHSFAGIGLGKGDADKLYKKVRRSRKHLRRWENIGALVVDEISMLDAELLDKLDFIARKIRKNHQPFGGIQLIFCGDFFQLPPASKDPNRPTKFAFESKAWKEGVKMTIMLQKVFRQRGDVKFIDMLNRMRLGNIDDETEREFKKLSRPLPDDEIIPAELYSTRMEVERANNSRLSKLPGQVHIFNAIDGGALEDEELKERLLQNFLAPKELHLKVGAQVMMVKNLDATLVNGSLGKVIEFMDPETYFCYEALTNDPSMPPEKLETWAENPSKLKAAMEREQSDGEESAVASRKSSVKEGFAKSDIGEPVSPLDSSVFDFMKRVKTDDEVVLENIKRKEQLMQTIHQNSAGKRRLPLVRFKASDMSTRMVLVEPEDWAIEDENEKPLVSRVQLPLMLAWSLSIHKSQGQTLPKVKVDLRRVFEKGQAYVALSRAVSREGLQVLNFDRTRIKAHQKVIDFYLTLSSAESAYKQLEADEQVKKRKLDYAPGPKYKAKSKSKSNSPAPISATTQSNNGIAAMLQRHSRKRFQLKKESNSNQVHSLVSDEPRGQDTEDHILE

T2: GFP-Pif1 (Saccharomyces cerevisiae, UniProt P07271, T301A)
T2 construct: N-terminal superfolder GFP fusion of nuclear isoform residues 40-859, pRSF-Duet-1, E. coli Rosetta2(DE3), Ni-NTA purified
T2 sequence (P07271 40-859 T301A): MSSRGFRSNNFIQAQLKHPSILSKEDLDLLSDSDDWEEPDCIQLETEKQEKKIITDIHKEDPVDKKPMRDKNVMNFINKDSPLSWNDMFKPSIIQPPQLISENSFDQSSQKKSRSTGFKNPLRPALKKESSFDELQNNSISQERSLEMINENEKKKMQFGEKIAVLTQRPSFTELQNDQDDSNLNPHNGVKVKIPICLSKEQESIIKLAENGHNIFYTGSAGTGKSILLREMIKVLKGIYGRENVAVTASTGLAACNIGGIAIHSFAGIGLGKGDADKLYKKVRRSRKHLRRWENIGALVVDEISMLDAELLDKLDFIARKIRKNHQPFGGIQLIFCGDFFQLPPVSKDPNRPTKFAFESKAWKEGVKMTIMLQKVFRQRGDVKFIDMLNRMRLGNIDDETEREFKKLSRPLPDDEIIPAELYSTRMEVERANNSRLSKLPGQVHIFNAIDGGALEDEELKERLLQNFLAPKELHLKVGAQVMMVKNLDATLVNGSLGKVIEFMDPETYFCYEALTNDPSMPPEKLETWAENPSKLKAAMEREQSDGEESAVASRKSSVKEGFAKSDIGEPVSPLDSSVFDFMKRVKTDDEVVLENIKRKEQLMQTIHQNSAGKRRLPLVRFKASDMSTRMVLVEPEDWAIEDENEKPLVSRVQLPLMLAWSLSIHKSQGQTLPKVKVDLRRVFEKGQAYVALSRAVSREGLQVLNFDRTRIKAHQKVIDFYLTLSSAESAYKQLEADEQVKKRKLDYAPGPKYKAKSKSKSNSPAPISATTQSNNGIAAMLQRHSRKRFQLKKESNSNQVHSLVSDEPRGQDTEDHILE

T3: GFP-Pif1 (Saccharomyces cerevisiae, UniProt P07271, H705A)
T3 construct: N-terminal superfolder GFP fusion of nuclear isoform residues 40-859, pRSF-Duet-1, E. coli Rosetta2(DE3), Ni-NTA purified
T3 sequence (P07271 40-859 H705A): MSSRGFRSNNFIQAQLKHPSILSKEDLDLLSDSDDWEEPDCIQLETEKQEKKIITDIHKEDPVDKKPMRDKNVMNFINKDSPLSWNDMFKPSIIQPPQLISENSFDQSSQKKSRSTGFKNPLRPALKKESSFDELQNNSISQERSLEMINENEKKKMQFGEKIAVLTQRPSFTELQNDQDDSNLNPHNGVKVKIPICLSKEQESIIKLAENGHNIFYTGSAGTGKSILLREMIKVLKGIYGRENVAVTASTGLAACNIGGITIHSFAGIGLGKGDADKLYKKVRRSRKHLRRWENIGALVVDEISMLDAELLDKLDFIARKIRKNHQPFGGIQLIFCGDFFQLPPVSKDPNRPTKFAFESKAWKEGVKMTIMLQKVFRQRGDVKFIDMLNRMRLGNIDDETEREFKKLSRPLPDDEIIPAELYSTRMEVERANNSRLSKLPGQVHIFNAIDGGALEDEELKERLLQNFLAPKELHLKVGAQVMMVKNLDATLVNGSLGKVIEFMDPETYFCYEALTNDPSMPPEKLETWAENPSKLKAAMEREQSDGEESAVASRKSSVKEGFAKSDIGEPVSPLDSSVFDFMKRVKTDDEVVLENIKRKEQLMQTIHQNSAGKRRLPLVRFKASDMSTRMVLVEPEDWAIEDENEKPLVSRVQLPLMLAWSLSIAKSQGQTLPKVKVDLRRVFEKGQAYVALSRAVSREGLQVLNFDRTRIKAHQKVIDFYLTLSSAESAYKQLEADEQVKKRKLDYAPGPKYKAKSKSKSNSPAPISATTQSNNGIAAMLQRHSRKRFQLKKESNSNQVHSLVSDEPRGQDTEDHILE

T4: GFP-Pif1 T301A (Saccharomyces cerevisiae, UniProt P07271 40-859, T301A)
T4 sequence: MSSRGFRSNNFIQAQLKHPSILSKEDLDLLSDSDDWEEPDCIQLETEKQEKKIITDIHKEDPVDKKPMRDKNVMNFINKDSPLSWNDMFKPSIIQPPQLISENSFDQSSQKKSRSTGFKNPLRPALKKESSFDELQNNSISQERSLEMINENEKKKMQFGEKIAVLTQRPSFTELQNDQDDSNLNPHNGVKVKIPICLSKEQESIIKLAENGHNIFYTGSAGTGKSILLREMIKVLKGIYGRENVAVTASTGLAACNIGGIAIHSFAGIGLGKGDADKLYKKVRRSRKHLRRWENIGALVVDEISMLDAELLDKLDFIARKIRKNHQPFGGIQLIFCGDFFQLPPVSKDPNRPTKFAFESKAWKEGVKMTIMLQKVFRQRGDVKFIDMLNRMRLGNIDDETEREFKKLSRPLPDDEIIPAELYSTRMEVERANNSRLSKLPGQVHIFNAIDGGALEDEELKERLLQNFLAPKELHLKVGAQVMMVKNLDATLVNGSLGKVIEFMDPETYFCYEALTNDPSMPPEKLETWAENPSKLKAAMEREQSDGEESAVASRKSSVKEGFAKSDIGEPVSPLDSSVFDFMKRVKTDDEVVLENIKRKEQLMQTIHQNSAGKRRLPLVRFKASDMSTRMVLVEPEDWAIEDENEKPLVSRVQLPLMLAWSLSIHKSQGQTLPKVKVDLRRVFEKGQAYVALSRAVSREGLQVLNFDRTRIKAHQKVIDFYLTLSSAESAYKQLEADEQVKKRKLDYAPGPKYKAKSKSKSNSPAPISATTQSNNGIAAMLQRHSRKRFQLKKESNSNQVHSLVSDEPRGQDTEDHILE


Tests used:
[1] = target: T1, GFP-Pif1; assay: ATP hydrolysis, [γ-32P]-ATP TLC, Michaelis-Menten fit; assay type: biochemical; conditions: M13 ssDNA 1.5 μM nt, 10 nM Pif1, 5 mM MgCl2, 60 mM KCl, pH 7.5, 30 °C, no RPA; labelled compound as tracer
[2] = target: T2, GFP-Pif1; assay: as above; assay type: biochemical; conditions: M13 ssDNA 1.5 μM nt, 10 nM Pif1, 5 mM MgCl2, 60 mM KCl, pH 7.5, 30 °C, no RPA; labelled compound as tracer
[3] = target: T3, GFP-Pif1; assay: as above; assay type: biochemical; conditions: M13 ssDNA 1.5 μM nt, 10 nM Pif1, 5 mM MgCl2, 60 mM KCl, pH 7.5, 30 °C, no RPA; labelled compound as tracer
[4] = target: T4, GFP-Pif1 T301A; assay: EMSA; no ATP, 5 mM Mg2+; up to 50 nM; 35 mM Tris-HCl pH 7.5, 1 mM DTT, 5 mM MgCl2, 60 mM KCl, 0.1 mg/ml BSA, no ATP, 30 min at 30 C; 5 nM ssDNA; conditions: protein: recombinant; tags: N-terminal superfolder GFP; Ni-NTA purified; label: 5' Alexa647

| Km [1] [µM] | Km [2] [µM] | Km [3] [µM] | Molecule | binding result [4] |
| --- | --- | --- | --- | --- |
| 1280 ± 540 | 1000 ± 830 | 1210 | Nc1ncnc2c1ncn2[C@@H]1O[C@H](COP(=O)(O)OP(=O)(O)OP(=O)(O)O)[C@@H](O)[C@H]1O [ATP] |  |
|  |  |  | GCTAGCAGTAGCCAGCATCGAACGTACGATCGGTAACGTA (ssDNA) [40-nt ssDNA] | no binding |
